Experiment [1] has as its target T1, His tagged full-length PTP1B protein (Homo sapiens, UniProt P18031).
T1 construct: made in house
T1 sequence (P18031 with tags, fused parts or gaps): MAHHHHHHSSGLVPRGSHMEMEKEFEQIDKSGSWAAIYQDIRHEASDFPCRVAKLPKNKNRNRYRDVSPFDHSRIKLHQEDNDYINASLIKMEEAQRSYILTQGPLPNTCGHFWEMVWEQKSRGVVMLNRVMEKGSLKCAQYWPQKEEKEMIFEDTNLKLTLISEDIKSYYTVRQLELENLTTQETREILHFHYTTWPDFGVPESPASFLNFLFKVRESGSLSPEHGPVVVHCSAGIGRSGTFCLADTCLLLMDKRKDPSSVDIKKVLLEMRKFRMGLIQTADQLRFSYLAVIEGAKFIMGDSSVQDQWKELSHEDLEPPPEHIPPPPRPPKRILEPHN
As to the kind of experiment: Mobility shift assay (MSA) for potency of PTP1B inhibitors. Format: biochemical. As for the experimental part: The enzymatic assay used to determine activity is a mobility shift assay using a LabChip EZ Reader by Caliper Life Sciences. The enzymatic reaction was carried out in assay buffer (50 mM HEPES pH 7.5, 1 mM EGTA, 10 mM EDTA, 0.01% Tween® 20, and 2 mM DTT). […] The enzyme (at 0.5 nM) was incubated with compound for 10 minutes at room temperature. […] The % inhibition was then used to calculate the IC50 values.

For experiment [2], the target named is T2, His tagged PTPN2 (TC45) protein (Homo sapiens, UniProt P17706).
T2 construct: made in house
T2 sequence (P17706 with tags, fused parts or gaps isoform P17706-2): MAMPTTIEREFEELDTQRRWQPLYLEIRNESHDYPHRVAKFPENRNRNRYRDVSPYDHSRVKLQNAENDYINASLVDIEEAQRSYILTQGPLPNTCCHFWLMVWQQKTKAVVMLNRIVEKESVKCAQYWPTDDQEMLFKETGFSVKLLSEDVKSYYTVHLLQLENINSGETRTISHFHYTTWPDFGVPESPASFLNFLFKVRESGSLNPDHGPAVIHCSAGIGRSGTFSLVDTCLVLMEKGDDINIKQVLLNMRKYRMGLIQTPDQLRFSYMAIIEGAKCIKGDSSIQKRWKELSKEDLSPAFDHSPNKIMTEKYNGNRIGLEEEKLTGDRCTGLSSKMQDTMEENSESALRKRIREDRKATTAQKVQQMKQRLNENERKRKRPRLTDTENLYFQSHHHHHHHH
As to the kind of experiment: Mobility shift assay (MSA) for potency of PTPN2 inhibitors. Format: biochemical. As to conditions: read-out: PTPN2 MSA IC50. The essentials:
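His-tagged PTPN2 TC45 (0.5 nM) was preincubated with compound (12-point, 1:3) for 10 min at room temperature in 50 mM HEPES pH 7.5, 1 mM EGTA, 10 mM EDTA, 0.01% Tween 20, 2 mM DTT. OG488-labelled phospho-insulin-receptor peptide ([…]) was then added for 10 min. After quenching, dephosphorylation was measured by microfluidic mobility shift and IC50 derived from % inhibition.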

In experiment [3] the test system is B16F10 mouse melanoma cells. Briefly: B16F10 IFNγ-induced cellular growth inhibition assay. Format: cell-based. As to conditions: Mus musculus, B16-F10, 33 μM compound. The essentials:
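B16F10 cells (500/well, DMEM + 10% FBS) dosed in triplicate at 100 μM to 0.001 μM (0.1% DMSO) with or without 0.5 ng/mL final mouse IFNγ. Confluence imaged every 6 h for 5 days; % growth inhibition calculated versus DMSO/with-IFNγ control once DMSO/no-IFNγ wells exceeded 95% confluence.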

The mark [4] stands for this setting: +0.5 ng/mL IFNγ, relative to DMSO control, read-out: % B16F10 growth inhibition (+0.5 ng/mL IFNγ) @ 33 μM.
Where [5] appears, read: no IFNγ, read-out: % B16F10 growth inhibition (no IFNγ) @ 33 μM.

SMILES strings stand for the structures. Read-outs that look alike come from different tables or passages of the source. Where only a bound is given, the exact number is not on record here.

As a reminder, the IC50 is the concentration that gives 50% inhibition.

Consider `CC[C@H]1C[C@@H]1COc1ccc2cc(O)c(N3CC(=O)NS3(=O)=O)c(F)c2c1` (racemic) [Compound 218, 5-(7-{[rac-(1R,2R)-2-ethylcyclopropyl]methoxy}-1-fluoro-3-hydroxynaphthalen-2-yl)-1λ^6,2,5-thiadiazolidine-1,1,3-trione], for which the half-maximal inhibitory concentration (IC50) in experiment [1] and in experiment [2] was 0.001 to 0.01 µM in each case. The inhibition at 33 µM in experiment [3] (setting [4]) was 25 to 59%; in experiment [3] (setting [5]), < 25%.

As for `O=C1CN(c2c(O)cc3ccc(C4CCN(S(=O)(=O)C5CC5)C4)cc3c2F)S(=O)(=O)N1` (stereo not shown) [Compound 101, 5-{7-[1-(cyclopropanesulfonyl)pyrrolidin-3-yl]-1-fluoro-3-hydroxynaphthalen-2-yl}-1λ^6,2,5-thiadiazolidine-1,1,3-trione], the figures for the IC50 in experiment [1] and in experiment [2] were 0.001 to 0.01 µM and < 0.001 µM, respectively. For the same molecule, the inhibition at 33 µM is 60 to 90% in experiment [3] (setting [4]) and < 25% in experiment [3] (setting [5]).

For `O=C1CN(c2c(O)cc3ccc(C4CCNC4)cc3c2F)S(=O)(=O)N1` (stereo not shown) [Compound 102, 5-[1-fluoro-3-hydroxy-7-(pyrrolidin-3-yl)naphthalen-2-yl]-1λ^6,2,5-thiadiazolidine-1,1,3-trione], the half-inhibitory concentration (IC50) in experiment [1] was in the range of 0.01 to 0.1 µM; in experiment [2] it was 0.001 to 0.01 µM. The inhibition at 33 µM in experiment [3] (setting [4]) was 60 to 90%; in experiment [3] (setting [5]), < 25%.

Take `O=C1CN(c2c(O)cc3ccc(OCCC4CCNCC4)cc3c2F)S(=O)(=O)N1` [Compound 108, 5-{1-fluoro-3-hydroxy-7-[2-(piperidin-4-yl)ethoxy]naphthalen-2-yl}-1λ^6,2,5-thiadiazolidine-1,1,3-trione]: the IC50 in experiment [1] and in experiment [2] was 0.001 to 0.01 µM each time. In addition, the inhibition at 33 µM in experiment [3] (setting [4]) is 25 to 59%; in experiment [3] (setting [5]), < 25%.

For `O=C1CN(c2c(O)cc3ccc(C4CCCN(S(=O)(=O)C5CC5)C4)cc3c2F)S(=O)(=O)N1` (stereo not shown) [Compound 186, 5-{7-[1-(cyclopropanesulfonyl)piperidin-3-yl]-1-fluoro-3-hydroxynaphthalen-2-yl}-1λ^6,2,5-thiadiazolidine-1,1,3-trione], the IC50 in experiment [1] was in the range of 0.01 to 0.1 µM; in experiment [2], 0.001 to 0.01 µM.

Turning to `O=C1CN(c2c(O)cc3ccc(C4CCCN4C(=O)C4CC4)cc3c2F)S(=O)(=O)N1` (stereo not shown) [Compound 187, 5-{7-[1-(cyclopropanecarbonyl)pyrrolidin-2-yl]-1-fluoro-3-hydroxynaphthalen-2-yl}-1λ^6,2,5-thiadiazolidine-1,1,3-trione], the results for the IC50 in experiment [1] and in experiment [2] were 0.01 to 0.1 µM and 0.001 to 0.01 µM, respectively.

In the case of `O=C1CN(c2c(O)cc3ccc(C4CCCN4S(=O)(=O)C4CC4)cc3c2F)S(=O)(=O)N1` (stereo not shown) [Compound 189, 5-{7-[1-(cyclopropanesulfonyl)pyrrolidin-2-yl]-1-fluoro-3-hydroxynaphthalen-2-yl}-1λ^6,2,5-thiadiazolidine-1,1,3-trione], the concentration for half-maximal inhibition (IC50) lay in the range of 0.01 to 0.1 µM in experiment [1] and 0.001 to 0.01 µM in experiment [2].

On to `CC(C)(C)CC1CCN(c2ccc3cc(O)c(N4CC(=O)NS4(=O)=O)c(F)c3c2)C1` (stereo not shown) [Compound 220, 5-{7-[3-(2,2-dimethylpropyl)pyrrolidin-1-yl]-1-fluoro-3-hydroxynaphthalen-2-yl}-1λ^6,2,5-thiadiazolidine-1,1,3-trione], for which the 50% inhibitory concentration (IC50) in experiment [1] is > 0.1 µM; in experiment [2], 0.01 to 0.1 µM.

In the case of `O=C1CN(c2c(O)cc3ccc(C(CO)CCl)cc3c2F)S(=O)(=O)N1` (stereo not shown) [Compound 221, 5-[7-(1-chloro-3-hydroxypropan-2-yl)-1-fluoro-3-hydroxynaphthalen-2-yl]-1λ^6,2,5-thiadiazolidine-1,1,3-trione], the 50% inhibitory concentration (IC50) was > 0.1 µM in experiment [1] and 0.01 to 0.1 µM in experiment [2].

On to `O=C1CN(c2c(O)cc3ccc(C4CCN(CC5CC5)C4)cc3c2F)S(=O)(=O)N1` (stereo not shown) [Compound 222, 5-{7-[1-(cyclopropylmethyl)pyrrolidin-3-yl]-1-fluoro-3-hydroxynaphthalen-2-yl}-1λ^6,2,5-thiadiazolidine-1,1,3-trione], for which the half-maximal inhibitory concentration (IC50) in experiment [1] was 0.01 to 0.1 µM; in experiment [2] it was > 0.1 µM.

In the case of `O=C1CN(c2c(O)cc3ccc(C4CCCN4)cc3c2F)S(=O)(=O)N1` (stereo not shown) [Compound 258, 5-[1-fluoro-3-hydroxy-7-(pyrrolidin-2-yl)naphthalen-2-yl]-1λ^6,2,5-thiadiazolidine-1,1,3-trione], the IC50 in experiment [1] fell in the range of 0.01 to 0.1 µM; in experiment [2], 0.001 to 0.01 µM.

On to `O=C1CN(c2c(O)cc3ccc(CC4CCNC4)cc3c2F)S(=O)(=O)N1` (stereo not shown) [Compound 262, 5-{1-fluoro-3-hydroxy-7-[(pyrrolidin-3-yl)methyl]naphthalen-2-yl}-1λ^6,2,5-thiadiazolidine-1,1,3-trione], for which the IC50 was in the range of 0.01 to 0.1 µM in experiment [1] and 0.001 to 0.01 µM in experiment [2].

Regarding `O=C1CN(c2c(O)cc3ccc(OC(CO)CCl)cc3c2F)S(=O)(=O)N1` (stereo not shown) [Compound 272, 5-{7-[(1-chloro-3-hydroxypropan-2-yl)oxy]-1-fluoro-3-hydroxynaphthalen-2-yl}-1λ^6,2,5-thiadiazolidine-1,1,3-trione], the IC50 was 0.01 to 0.1 µM in experiment [1] and 0.001 to 0.01 µM in experiment [2].

As to `O=C1CN(c2c(O)cc3ccc(C4=CCN(S(=O)(=O)C5CCOC5)C4)cc3c2F)S(=O)(=O)N1` (stereo not shown) [Compound 285, 5-{1-fluoro-3-hydroxy-7-[1-(oxolane-3-sulfonyl)-2,5-dihydro-1H-pyrrol-3-yl]naphthalen-2-yl}-1λ^6,2,5-thiadiazolidine-1,1,3-trione], the results for the IC50 in experiment [1] and in experiment [2] were 0.001 to 0.01 µM and < 0.001 µM, respectively.

`CCCS(=O)(=O)N1CC=C(c2ccc3cc(O)c(N4CC(=O)NS4(=O)=O)c(F)c3c2)C1` [Compound 288]: the IC50 in experiment [1] and in experiment [2] was < 0.001 µM each time.

`O=C1CN(c2c(O)cc3ccc(C4=CCN(S(=O)(=O)CC5CCCCO5)C4)cc3c2F)S(=O)(=O)N1` (stereo not shown) [Compound 289, 5-(1-fluoro-3-hydroxy-7-{1-[(oxan-2-yl)methanesulfonyl]-2,5-dihydro-1H-pyrrol-3-yl}naphthalen-2-yl)-1λ^6,2,5-thiadiazolidine-1,1,3-trione]: the half-maximal inhibitory concentration (IC50) in experiment [1] and in experiment [2] was < 0.001 µM each time.

Turning to `O=C1CN(c2c(O)cc3ccc(C4=CCN(S(=O)(=O)CC5COCCO5)C4)cc3c2F)S(=O)(=O)N1` (stereo not shown) [Compound 292, 5-(7-{1-[(1,4-dioxan-2-yl)methanesulfonyl]-2,5-dihydro-1H-pyrrol-3-yl}-1-fluoro-3-hydroxynaphthalen-2-yl)-1λ^6,2,5-thiadiazolidine-1,1,3-trione], the half-maximal inhibitory concentration (IC50) in experiment [1] and in experiment [2] was < 0.001 µM in each case.

Turning to `CCCC(C)S(=O)(=O)N1CC=C(c2ccc3cc(O)c(N4CC(=O)NS4(=O)=O)c(F)c3c2)C1` (stereo not shown) [Compound 294, 5-{1-fluoro-3-hydroxy-7-[1-(pentane-2-sulfonyl)-2,5-dihydro-1H-pyrrol-3-yl]naphthalen-2-yl}-1λ^6,2,5-thiadiazolidine-1,1,3-trione], the IC50 in experiment [1] and in experiment [2] was < 0.001 µM in each case.

In the case of `CC(C)S(=O)(=O)N1CCC(c2ccc3cc(O)c(N4CC(=O)NS4(=O)=O)c(F)c3c2)C1` (stereo not shown) [Compound 308, 5-{1-fluoro-3-hydroxy-7-[1-(propane-2-sulfonyl)pyrrolidin-3-yl]naphthalen-2-yl}-1λ^6,2,5-thiadiazolidine-1,1,3-trione], the concentration for half-maximal inhibition (IC50) in experiment [1] was 0.001 to 0.01 µM; in experiment [2], < 0.001 µM.

The record behind these values is patent US20210009542A1 (Calico Life Sciences LLC, priority 2018, published 2021).
